In ChEMBL document CHEMBL1201862, “PubChem BioAssay data set” (2004):
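1) Cells in 96-well plates. 2) Compound, 48 h, 5 concentrations. 3) Linear interpolation between surrounding doses. 4) Unreached endpoint = highest concentration. At the GI50, growth is halved.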 The source made the active and inactive calls. Rule as the data show it: active = GI50 up to about 1.1 µM and inactive = higher. Starred links: 1 amine or outer side, 2 acyl side, 3 side chain; linkers in the order of their positions; H or OH if unused. Non-standard residues stand in square brackets, D forms with d. Residues, ends and D or L forms follow the SMILES beside them. *: point of attachment. X47 = CCC(=O)CC1CC(C)CC(C(=O)[*:2])N1[*:1]; X46 = CCCCCCCCC(C)C(=O)*; Aib = CC(C)(N)C(=O)O; X48 = CC(CN(C)CCO)N*

Key:
Test in all cases: NCI-60 cell line screen, 48 h
RPMI-8226 = tested on: RPMI-8226
SW-620 = tested on: SW-620
DLD-1 = tested on: DLD-1
RXF 393 = tested on: RXF 393
SF-539 = tested on: SF-539
COLO 205 = tested on: COLO 205
SK-MEL-5 = tested on: SK-MEL-5
SK-MEL-28 = tested on: SK-MEL-28
ACHN = tested on: ACHN
M19-MEL = tested on: M19-MEL
HOP-92 = tested on: HOP-92
HL-60 = tested on: HL-60
M14 = tested on: M14
SNB-75 = tested on: SNB-75
KM-20L2 = tested on: KM-20L2
UO-31 = tested on: UO-31
OVCAR-3 = tested on: OVCAR-3
TK-10 = tested on: TK-10
MOLT-4 = tested on: MOLT-4
OVCAR-4 = tested on: OVCAR-4
NCI-H23 = tested on: NCI-H23
NCI-H460 = tested on: NCI-H460
DMS-114 = tested on: DMS-114
LXFL 529 = tested on: LXFL 529
CAKI-1 = tested on: CAKI-1
HCT-116 = tested on: HCT-116
CCRF-CEM = tested on: CCRF-CEM
SR = tested on: SR
SNB-19 = tested on: SNB-19
OVCAR-8 = tested on: OVCAR-8
UACC-62 = tested on: UACC-62
IGROV-1 = tested on: IGROV-1
HT-29 = tested on: HT-29
A549 = tested on: A549
SK-MEL-2 = tested on: SK-MEL-2
SF-295 = tested on: SF-295
EKVX = tested on: EKVX
UACC-257 = tested on: UACC-257
SF-268 = tested on: SF-268
KM12 = tested on: KM12
NCI-H226 = tested on: NCI-H226
HOP-62 = tested on: HOP-62
HCC 2998 = tested on: HCC 2998
K562 = tested on: K562
BT-549 = tested on: BT-549
MDA-MB-231 = tested on: MDA-MB-231
MDA-N = tested on: MDA-N
Malme-3M = tested on: Malme-3M
A498 = tested on: A498
T47D = tested on: T47D
DU-145 = tested on: DU-145
HCT-15 = tested on: HCT-15
786-0 = tested on: 786-0
OVCAR-5 = tested on: OVCAR-5
SK-OV-3 = tested on: SK-OV-3
SN12C = tested on: SN12C
MCF7 = tested on: MCF7
NCI-H522 = tested on: NCI-H522
NCI/ADR-RES = tested on: NCI/ADR-RES
U-251 = tested on: U-251
LOX IMVI = tested on: LOX IMVI
Hs-578T = tested on: Hs-578T
PC-3 = tested on: PC-3
MDA-MB-435 = tested on: MDA-MB-435

COC(=O)C1=C(C)N2CCOC2CC1c1ccccc1 (stereo not drawn)
GI50 (RPMI-8226): 40.4 µM (inactive) | GI50 (SW-620): > 100 µM (inactive) | GI50 (DLD-1): 78.3 µM (inactive) | GI50 (RXF 393): 48.6 µM (inactive) | GI50 (SF-539): > 100 µM (inactive) | GI50 (COLO 205): > 100 µM (inactive) | GI50 (SK-MEL-5): > 100 µM (inactive) | GI50 (SK-MEL-28): 99.1 µM (inactive) | GI50 (ACHN): > 100 µM (inactive) | GI50 (M19-MEL): > 100 µM (inactive) | GI50 (HOP-92): 44.7 µM (inactive) | GI50 (HL-60): 53.5 µM (inactive) | GI50 (M14): > 100 µM (inactive) | GI50 (SNB-75): > 100 µM (inactive) | GI50 (KM-20L2): > 100 µM (inactive) | GI50 (UO-31): > 100 µM (inactive) | GI50 (OVCAR-3): 49.5 µM (inactive) | GI50 (TK-10): > 100 µM (inactive) | GI50 (MOLT-4): 77.4 µM (inactive) | GI50 (OVCAR-4): > 100 µM (inactive) | GI50 (NCI-H23): 84.1 µM (inactive) | GI50 (NCI-H460): > 100 µM (inactive) | GI50 (DMS-114): > 100 µM (inactive) | GI50 (LXFL 529): > 100 µM (inactive) | GI50 (CAKI-1): > 100 µM (inactive) | GI50 (HCT-116): > 100 µM (inactive) | GI50 (CCRF-CEM): 45.4 µM (inactive) | GI50 (SR): 78.9 µM (inactive) | GI50 (SNB-19): > 100 µM (inactive) | GI50 (OVCAR-8): > 100 µM (inactive) | GI50 (UACC-62): > 100 µM (inactive) | GI50 (IGROV-1): > 100 µM (inactive) | GI50 (HT-29): > 100 µM (inactive) | GI50 (A549): > 100 µM (inactive) | GI50 (SK-MEL-2): > 100 µM (inactive) | GI50 (SF-295): > 100 µM (inactive) | GI50 (EKVX): > 100 µM (inactive) | GI50 (UACC-257): > 100 µM (inactive) | GI50 (SF-268): > 100 µM (inactive) | GI50 (KM12): > 100 µM (inactive) | GI50 (NCI-H226): > 100 µM (inactive) | GI50 (HOP-62): > 100 µM (inactive) | GI50 (HCC 2998): > 100 µM (inactive) | GI50 (K562): 70.5 µM (inactive)

CCCCCCCCC(C)C(=O)N1CCCC1C(=O)N1C(CC(=O)CC)CC(C)CC1C(=O)NC(C)C(=O)NC(C)(C)C(=O)NC(C)(C)C(=O)NC(C(=O)NC(C)C(=O)NC(C)(C)C(=O)NC(C)(C)C(=O)NC(C)CN(C)CCO)C(C)CC (stereo not drawn) (X46-P[X47]A[Aib][Aib]IA[Aib][Aib]-X48; configuration not given here)
GI50 (RPMI-8226): < 0.0181 µM (active) | GI50 (SW-620): 0.0794 µM (active) | GI50 (BT-549): 1.57 µM (inactive) | GI50 (RXF 393): 1.85 µM (inactive) | GI50 (MDA-MB-231): 560 nM (active) | GI50 (MDA-N): 1.17 µM (inactive) | GI50 (Malme-3M): 1.26 µM (inactive) | GI50 (SF-539): 0.211 µM (active) | GI50 (COLO 205): 0.0135 µM (active) | GI50 (A498): 2 µM (inactive) | GI50 (T47D): < 10 nM (active) | GI50 (SK-MEL-5): < 0.0135 µM (active) | GI50 (SK-MEL-28): 2.89 µM (inactive) | GI50 (ACHN): 0.0368 µM (active) | GI50 (HOP-92): < 0.01 µM (active) | GI50 (DU-145): 84.7 nM (active) | GI50 (HCT-15): 406 nM | GI50 (HL-60): < 0.0106 µM (active) | GI50 (M14): 0.593 µM (active) | GI50 (SNB-75): 0.382 µM (active) | GI50 (UO-31): 0.124 µM (active) | GI50 (OVCAR-3): < 0.01 µM (active) | GI50 (TK-10): 0.09 µM (active) | GI50 (786-0): 106 nM (active) | GI50 (OVCAR-5): 889 nM (active) | GI50 (SK-OV-3): 1.19 µM (inactive) | GI50 (SN12C): 115 nM (active) | GI50 (MCF7): < 10 nM (active) | GI50 (NCI-H522): < 10 nM (active) | GI50 (MOLT-4): 0.08 µM (active) | GI50 (OVCAR-4): < 0.0118 µM (active) | GI50 (NCI-H23): < 0.01 µM (active) | GI50 (NCI-H460): 0.0204 µM (active) | GI50 (CAKI-1): 0.818 µM (active) | GI50 (HCT-116): 0.0299 µM (active) | GI50 (CCRF-CEM): < 0.0183 µM (active) | GI50 (SR): 0.0294 µM (active) | GI50 (NCI/ADR-RES): 435 nM (active) | GI50 (SNB-19): 0.214 µM (active) | GI50 (OVCAR-8): < 0.01 µM (active) | GI50 (U-251): < 49.8 nM (active) | GI50 (UACC-62): 1.89 µM (inactive) | GI50 (LOX IMVI): 355 nM (active) | GI50 (Hs-578T): 168 nM (active) | GI50 (IGROV-1): 0.221 µM (active) | GI50 (HT-29): 0.0261 µM (active) | GI50 (A549): < 0.01 µM (active) | GI50 (SK-MEL-2): 0.369 µM (active) | GI50 (SF-295): < 0.01 µM (active) | GI50 (EKVX): < 0.01 µM (active) | GI50 (PC-3): 10.3 nM (active) | GI50 (MDA-MB-435): 1.41 µM (inactive) | GI50 (UACC-257): < 0.01 µM (active) | GI50 (SF-268): 0.581 µM (active) | GI50 (KM12): 0.142 µM (active) | GI50 (NCI-H226): 0.133 µM (active) | GI50 (HOP-62): 0.116 µM (active) | GI50 (HCC 2998): 0.0385 µM (active) | GI50 (K562): < 0.01 µM (active)
